Results as given in BindingDB's records for doi:10.1021/jm00110a015 (Virginia Commonwealth University, 1991).

Columns and labels:
[1] = Inhibition of [3H]DTG binding to Sigma opioid receptor
[2] = In vitro binding affinity at PCP binding site of sigma-opioid receptors using (+)-[3H]-MK-801 as radioligand

Structure (SMILES): CC(Cc1cccc(C(F)(F)F)c1)NCCCc1ccccc1 (configuration not stated)
- Ki [1]: 3.9 nM

Structure (SMILES): CC(Cc1ccc(I)cc1)NCCCc1ccccc1 (configuration not stated)
- IC50 [2]: > 10000 nM

Structure (SMILES): c1ccc(CCCNC2Cc3ccccc3C2)cc1
- Ki [1]: 27 nM

Structure (SMILES): COc1ccc(CC(C)NCCCc2ccccc2)cc1 (configuration not stated)
- IC50 [2]: > 10000 nM

Structure (SMILES): CC(Cc1cccc(Br)c1)NCCCc1ccccc1 (configuration not stated)
- Ki [1]: 6 nM

Structure (SMILES): c1ccc(CCCNC2CCCc3ccccc3C2)cc1 (configuration not stated)
- Ki [1]: 83 nM

Structure (SMILES): CCCc1ccc(CC(C)NCCCc2ccccc2)cc1 (configuration not stated)
- Ki [1]: 6.2 nM
